Consider 15 compounds from patent US20190010167A1, “INHIBITORS OF THE MENIN-MLL INTERACTION” (Vitae Pharmaceuticals, Inc., priority 2015, published 2019).

As a reminder, the pIC50 is −log10 of the IC50, conventionally taken in molar units.

The target of test [1] is T1, mutated menin / MLL-AF9 fusion protein (Homo sapiens, UniProt O00255).
T1 construct: biotinylated (1) wild-type menin or (2) mutated menin (described in Nature (2012) Vol. 482, pp. 542-548); fused on or other part: Biotin attached chemically with Sulfo-NHS-Biotin; This is a label, not a fusion
T1 sequence (O00255 1-610): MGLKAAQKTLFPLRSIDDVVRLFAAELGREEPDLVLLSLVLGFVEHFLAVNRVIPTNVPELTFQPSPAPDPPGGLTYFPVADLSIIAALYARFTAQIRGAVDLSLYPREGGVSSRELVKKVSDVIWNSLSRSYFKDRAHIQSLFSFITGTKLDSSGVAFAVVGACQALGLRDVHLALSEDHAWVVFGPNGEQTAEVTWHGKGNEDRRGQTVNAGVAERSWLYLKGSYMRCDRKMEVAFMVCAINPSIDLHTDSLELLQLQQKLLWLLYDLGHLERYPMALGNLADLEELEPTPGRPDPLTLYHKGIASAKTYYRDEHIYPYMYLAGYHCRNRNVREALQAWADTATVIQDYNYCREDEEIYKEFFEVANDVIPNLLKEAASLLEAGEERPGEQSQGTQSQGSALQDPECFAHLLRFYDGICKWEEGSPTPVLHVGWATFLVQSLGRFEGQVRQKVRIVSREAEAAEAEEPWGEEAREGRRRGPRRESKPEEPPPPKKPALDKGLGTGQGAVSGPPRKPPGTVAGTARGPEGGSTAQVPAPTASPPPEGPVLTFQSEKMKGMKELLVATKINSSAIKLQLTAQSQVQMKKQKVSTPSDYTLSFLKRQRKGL
Kind of test: AlphaLISA menin/MLL binding assay, mutated menin (Assay 1). The conditions noted are these: biotinylated mutated menin 5 nM, MLL-AF9-FLAG lysate, read-out: Assay 1 Mutant Menin IC50. Here is the method:
Potencies of inhibitor compounds against menin/MLL binding were assessed by AlphaLISA assay using biotinylated (1) wild-type menin or (2) mutated menin (described in Nature (2012) Vol. 482, pp. 542-548) and MLL-AF9 fusion protein bearing a FLAG epitope at its C-terminus. Menin proteins were expressed in E. coli and covalently modified with biotin using EZ-Link™ Sulfo-NHS-Biotin (ThermoFisher Cat. No. 21217) according to manufacturer's protocol. MLL1-1,396 fused to AF91-92 and the C-terminal FLAG peptide was expressed in HEK293 cells and used as a lysate cleared at 21,000×g for 10 min.
Compounds (2 μL of solutions in DMSO) were dispensed in white 96-well half-area plates (Corning Cat. No. 3693) and incubated for 30 min at RT with 5 nM biotinylated menin and appropriate amount of MLL-AF9-FLAG lysate in 40 μL of 50 mM Tris-HCl buffer pH 7.4 containing 5% (v/v) DMSO, 50 mM NaCl, 0.01% (w/v) bovine serum albumin (BSA) and 1 mM DTT. To this incubation mixture, 40 μl of AlphaLISA anti-FLAG acceptor (PerkinElmer Cat. No. AL112C) and streptavidin donor (PerkinElmer Cat. No. 6760002) beads (10 μg/mL each) was added and incubation continued at RT for 60 min. Alpha (amplified luminescent proximity homogeneous assay) signal was measured on an Envision multi-label plate reader at the end of the incubation. All steps were conducted under dim fluorescent light.
These percent inhibition values were regressed against compound concentrations in the assay using four parameter logit non-linear curve fitting (XLFit, IDBS). The IC50 values were derived from the curve fitting as inflection points on the dose-response curves and are set out in Table 1 below.

Test [2] addresses T2, wild-type menin / MLL-AF9 fusion protein (Homo sapiens, UniProt O00255).
T2 construct: made in house; host or cells: E. coli (menin); HEK293 cleared lysate (MLL-AF9-FLAG)
T2 sequence (O00255 1-610): T1 sequence (O00255 1-610)
The experiment in a line: AlphaLISA menin/MLL binding assay, wild-type menin (Assay 1). As to conditions: biotinylated wild-type menin 5 nM, MLL-AF9-FLAG lysate. In short, it runs like this: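 Biotinylated wild-type or mutated menin (5 nM, E. coli-expressed) was preincubated 30 min at RT with compound and HEK293 lysate containing MLL1-1,396–AF9 1-92–FLAG. Buffer was 50 mM Tris-HCl pH 7.4, 5% DMSO, 50 mM NaCl, 0.01% BSA, 1 mM DTT. Anti-FLAG acceptor and streptavidin donor beads (10 μg/mL each) were then added for 60 min. IC50 came from a four-parameter fit of the Alpha signal inhibition.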
Background: In Alpha technology, singlet oxygen from a donor bead excites a nearby acceptor bead.

In test [3] the target is T3, menin/MLL (Gal4-Menin and MLL1-46-VP16) in HEK293 cells (Homo sapiens, UniProt O00255).
T3 construct: expressed in transfected cells; host or cells: HEK293 (ATCC)
The experiment in a line: Mammalian cellular two-hybrid assay in HEK293 cells (Assay 2, cell assay). The format is cell-based. As to conditions: Gal4-Menin/MLL1-46-VP16 two-hybrid, NanoLuc luciferase reporter, 16-18 h. The protocol:
Potencies of inhibitor compounds against menin/MLL were tested in a mammalian cellular two-hybrid assay system. HEK293 cells (American Type Culture Collection (ATCC); Manassas, Va.) were co-transfected with three plasmids: one encoding Gal4-Menin (200 ng per 10^6 cells), another encoding MLL1-46-VP16 (100 ng per 10^6 cells), and a reporter plasmid pNL3.3-4×UAS (500 ng per 10^6 cells) encoding secreted NanoLuc® luciferase (Promega) with the upstream 4×UAS repeats for Gal4 binding. Transfection was performed in Opti-MEM® media using Lipofectamine® LTX with Plus™ Reagent (ThermoFisher Scientific) according to manufacturer's protocol. Cells were incubated with transfection reagents at 37° C. 5% CO2 for 5-6 h, harvested by trypsinization and centrifugation at 300×g for 5 min and resuspended in Gibco® DMEM media (phenol red-free, no antibiotics) containing 10% delipidated fetal bovine serum (FBS) (ThermoFisher Scientific). Concentration of cells in the media was adjusted to 3.5×10^5 cells/ml, and 100 μl of the cell suspension was dispensed into each well of 96-well Costar™ black clear bottom cell culture plates (Fisher Scientific). Tested compounds were added as 100 μL of 2× solutions in the media. Final concentration of DMSO was 0.1% in all wells. The cells were incubated with tested compounds at 37° C. 5% CO2 for 16-18 h. At the end of the incubation, 40 μL of the conditioned media from each well was transferred into each well of 96-well Costar™ black half-area plates (Fisher Scientific), to which 40 μl of 2× reconstituted NanoGlo® luciferase assay reagent (Promega) was added and thoroughly mixed on a microshaker for 2-3 min. Remaining media in the culture plates was removed by emptying the wells and blotting the plates on filter paper. The cells were lysed with 1× CellTiter-Glo® Luminescent Cell Viability Assay reagent (Promega) for assessing toxicity of the tested compounds. Both, Nano-Glo® and CellTiter-Glo® luminescence intensities were measured on EnVision® multilabel plate reader (PerkinElmer). Percent inhibition values were calculated based on Nano-Glo® luciferase activity observed with the tested compounds vs. DMSO control and commercially available menin inhibitor MI-2-2 (4-(4-(5,5-Dimethyl-4,5-dihydrothiazol-2-yl)piperazin-1-yl)-6-(2,2,2-trifluoroethyl)thieno[2,3-d]pyrimidine) (EMD Millipore, Cat. No. 444825) incubated with cells at 5 μM. These percent inhibition values were regressed against compound concentrations in the assay using non-linear 4-parameter logit curve fitting (XLFit, IDBS). Half maximal inhibitory concentrations (IC50) were calculated as the parameters of the fit corresponding to the inflection points on semi-logarithmic dose-response curves.
In general terms: In a reporter assay the amount or activity of a reporter protein is the signal.

pIC50: −log10 of the molar value.

T3 sequence (P04386 1-147 partner limits assumed, species assumed, one chain of several): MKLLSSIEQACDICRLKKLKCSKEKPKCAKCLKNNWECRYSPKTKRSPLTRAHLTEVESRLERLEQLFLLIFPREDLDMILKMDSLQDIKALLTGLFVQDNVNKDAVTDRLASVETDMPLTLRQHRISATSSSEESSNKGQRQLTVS

`CC1(C)CN=C(N2CC3(CCN(c4ncnc5sc(CC(F)(F)F)cc45)CC3)C2)S1` [Example 10, 4-(2-(5,5-dimethyl-4,5-dihydrothiazol-2-yl)-2,7-diazaspiro[3.5]nonan-7-yl)-6-(2,2,2-trifluoroethyl)thieno[2,3-d]pyrimidine]: the pIC50 in test [1] is 6.00 to 7.00. Still for that read-out and setting: to `CC1(C)CN=C(N2CCC3(CCN(c4ncnc5sc(CC(F)(F)F)cc45)CC3)C2)S1` [Example 27, 4-(2-(5,5-dimethyl-4,5-dihydrothiazol-2-yl)-2,8-diazaspiro[4.5]decan-8-yl)-6-(2,2,2-trifluoroethyl)thieno[2,3-d]pyrimidine] belongs 6.00 to 7.00; to `CC1(C)CN=C(N2CC3(C2)CN(c2ncnc4ccc(OC(F)(F)F)cc24)C3)S1` [Example 88, 5,5-dimethyl-2-(6-(6-(trifluoromethoxy)quinazolin-4-yl)-2,6-diazaspiro[3.3]heptan-2-yl)-4,5-dihydrothiazole], at most 6.00. With `FC(F)(F)Cc1cc2c(N3CC4(CCN(CC5CCOCC5)CC4)C3)ncnc2s1` [Example 99, 4-(7-((tetrahydro-2H-pyran-4-yl)methyl)-2,7-diazaspiro[3.5]nonan-2-yl)-6-(2,2,2-trifluoroethyl)thieno[2,3-d]pyrimidine], the figures for the pIC50 in test [2] and in test [3] were 6.00 to 7.00 and at most 6.00, respectively.

`CS(=O)(=O)N[C@H]1CC[C@H](CN2CCC3(CCN(c4ncnc5sc(CC(F)(F)F)cc45)C3)C2)CC1` (stereo partly drawn) [Example 48, N-((1r,4r)-4-((7-(6-(2,2,2-trifluoroethyl)thieno[2,3-d]pyrimidin-4-yl)-2,7-diazaspiro[4.4]nonan-2-yl)methyl)cyclohexyl)methanesulfonamide]: the pIC50 in test [2] is above 7.00; in test [3], 6.00 to 7.00. Turning to `FC(F)(F)Cc1cc2c(N3CCC4(CCN(Cc5ccccc5)C4)C3)ncnc2s1` (stereo not drawn) [Example 43, 4-(7-benzyl-2,7-diazaspiro[4.4]nonan-2-yl)-6-(2,2,2-trifluoroethyl)thieno[2,3-d]pyrimidine], the pIC50 in test [2] is above 7.00; in test [3], 6.00 to 7.00. Regarding `CC(C)(C)CN1CC2(CCN(c3ncnc4sc(CC(F)(F)F)cc34)CC2)C1` [Example 18, 4-(2-neopentyl-2,7-diazaspiro[3.5]nonan-7-yl)-6-(2,2,2-trifluoroethyl)thieno[2,3-d]pyrimidine], the pIC50 in test [2] was 6.00 to 7.00; in test [3] it was at most 6.00. In the same order, the values of `O=c1[nH]c2ccc(CN3CCC4(CCN(c5ncnc6sc(CC(F)(F)F)cc56)C4)C3)cc2o1` (stereo not drawn) [Example 40, 6-((7-(6-(2,2,2-trifluoroethyl)thieno[2,3-d]pyrimidin-4-yl)-2,7-diazaspiro[4.4]nonan-2-yl)methyl)benzo[d]oxazol-2(3H)-one] are above 7.00 and 6.00 to 7.00. On to `Cc1c(CN2CCC3(CCN(c4ncnc5sc(CC(F)(F)F)cc45)CC3)C2)ccc2[nH]c(C#N)cc12` [Example 26, 4-methyl-5-((8-(6-(2,2,2-trifluoroethyl)thieno[2,3-d]pyrimidin-4-yl)-2,8-diazaspiro[4.5]decan-2-yl)methyl)-1H-indole-2-carbonitrile], for which the figures for the negative-log IC50 (pIC50) in test [2] and in test [3] were above 7.00 and 6.00 to 7.00, respectively.

In the case of `CC(C)CN1CC2(CCN(c3ncnc4sc(CC(F)(F)F)cc34)CC2)C1` [Example 2, 4-(2-isobutyl-2,7-diazaspiro[3.5]nonan-7-yl)-6-(2,2,2-trifluoroethyl)thieno[2,3-d]pyrimidine], the pIC50 is 6.00 to 7.00 in test [2] and at most 6.00 in test [3]. With `FC(F)(F)Cc1cc2c(N3CC4(CCN(Cc5ccccc5)CC4)C3)ncnc2s1` [Example 98, 4-(7-benzyl-2,7-diazaspiro[3.5]nonan-2-yl)-6-(2,2,2-trifluoroethyl)thieno[2,3-d]pyrimidine], the pIC50 in test [2] and in test [3] was 6.00 to 7.00 each time.

Take `CS(=O)(=O)Nc1ccc(CN2CCC3(CC2)CN(c2ncnc4sc(CC(F)(F)F)cc24)C3)cc1` [Example 97, N-(4-((2-(6-(2,2,2-trifluoroethyl)thieno[2,3-d]pyrimidin-4-yl)-2,7-diazaspiro[3.5]nonan-7-yl)methyl)phenyl)methanesulfonamide]: the figures for the pIC50 in test [2] and in test [3] were above 7.00 and 6.00 to 7.00, respectively. Consider `N#Cc1ccc2c(CN3CC4(CCN(c5ncnc6sc(CC(F)(F)F)cc56)CC4)C3)c[nH]c2c1` [Example 20, 3-((7-(6-(2,2,2-trifluoroethyl)thieno[2,3-d]pyrimidin-4-yl)-2,7-diazaspiro[3.5]nonan-2-yl)methyl)-1H-indole-6-carbonitrile], for which the pIC50 in test [2] was 6.00 to 7.00; in test [3], at most 6.00. Turning to `CS(=O)(=O)Cc1ccc(CC(=O)N2CC3(C2)CN(c2ncnc4sc(CC(F)(F)F)cc24)C3)cc1` [Example 61, 2-(4-((methylsulfonyl)methyl)phenyl)-1-(6-(6-(2,2,2-trifluoroethyl)thieno[2,3-d]pyrimidin-4-yl)-2,6-diazaspiro[3.3]heptan-2-yl)ethan-1-one], the results for the pIC50 in test [2] and in test [3] were 6.00 to 7.00 and at most 6.00, respectively. Take `O=c1[nH]c2cc(CN3CCC4(CCN(c5ncnc6cc(CC(F)(F)F)sc56)C4)C3)ccc2n1CCO` (stereo not drawn) [Example 119, 1-(2-hydroxyethyl)-5-((7-(6-(2,2,2-trifluoroethyl)thieno[3,2-d]pyrimidin-4-yl)-2,7-diazaspiro[4.4]nonan-2-yl)methyl)-1H-benzo[d]imidazol-2(3H)-one]: the pIC50 in test [2] is above 7.00; in test [3], 6.00 to 7.00.
